Experimental data as given in patent publication US9732094B2, “Arylquinazolines” (Merck Patent GmbH, priority 2013, dated 2017).
Read-outs that look alike come from different tables or passages of the source.

Assays:
[1] = target: DNA-PK phosphorylation at serine 2056 (Homo sapiens (Human), UniProt P78527); assay: DNA-PK phosphorylation at serine 2056 (cellular), bleomycin-treated HCT116 cells, ELISA; format: cell-based; conditions: cellular DNA-PK phosphorylation at serine 2056, HCT116; read-out: IC50 pDNA-PK
How it was run: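 After overnight seeding, HCT116 cells received compound with 10 μM bleomycin for 6 h; phospho-DNA-PK ELISA signals were scaled to total DNA-PKcs, DMSO serving as blank.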

DNA-PK = DNA-PK (Homo sapiens (Human), UniProt P78527); assay: DNA-PK assay (biochemical), flashplate 33P-ATP kinase assay; conditions: biochemical DNA-PK assay
How it was run: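 Radiometric kinase reaction in streptavidin-coated flashplates, stopped with 200 mM EDTA, then 30 min room-temperature incubation and saline washes.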

Kv11.1 (hERG) = Kv11.1 (hERG) (Homo sapiens (Human), UniProt Q12809); assay: Kv11.1 (hERG) ion channel activity (patch clamp assay), HEK293 cells transfected with hERG gene; conditions: hERG patch clamp assay (cells without asterisk)
Sequence of Kv11.1 (hERG) (Q12809 whole entry): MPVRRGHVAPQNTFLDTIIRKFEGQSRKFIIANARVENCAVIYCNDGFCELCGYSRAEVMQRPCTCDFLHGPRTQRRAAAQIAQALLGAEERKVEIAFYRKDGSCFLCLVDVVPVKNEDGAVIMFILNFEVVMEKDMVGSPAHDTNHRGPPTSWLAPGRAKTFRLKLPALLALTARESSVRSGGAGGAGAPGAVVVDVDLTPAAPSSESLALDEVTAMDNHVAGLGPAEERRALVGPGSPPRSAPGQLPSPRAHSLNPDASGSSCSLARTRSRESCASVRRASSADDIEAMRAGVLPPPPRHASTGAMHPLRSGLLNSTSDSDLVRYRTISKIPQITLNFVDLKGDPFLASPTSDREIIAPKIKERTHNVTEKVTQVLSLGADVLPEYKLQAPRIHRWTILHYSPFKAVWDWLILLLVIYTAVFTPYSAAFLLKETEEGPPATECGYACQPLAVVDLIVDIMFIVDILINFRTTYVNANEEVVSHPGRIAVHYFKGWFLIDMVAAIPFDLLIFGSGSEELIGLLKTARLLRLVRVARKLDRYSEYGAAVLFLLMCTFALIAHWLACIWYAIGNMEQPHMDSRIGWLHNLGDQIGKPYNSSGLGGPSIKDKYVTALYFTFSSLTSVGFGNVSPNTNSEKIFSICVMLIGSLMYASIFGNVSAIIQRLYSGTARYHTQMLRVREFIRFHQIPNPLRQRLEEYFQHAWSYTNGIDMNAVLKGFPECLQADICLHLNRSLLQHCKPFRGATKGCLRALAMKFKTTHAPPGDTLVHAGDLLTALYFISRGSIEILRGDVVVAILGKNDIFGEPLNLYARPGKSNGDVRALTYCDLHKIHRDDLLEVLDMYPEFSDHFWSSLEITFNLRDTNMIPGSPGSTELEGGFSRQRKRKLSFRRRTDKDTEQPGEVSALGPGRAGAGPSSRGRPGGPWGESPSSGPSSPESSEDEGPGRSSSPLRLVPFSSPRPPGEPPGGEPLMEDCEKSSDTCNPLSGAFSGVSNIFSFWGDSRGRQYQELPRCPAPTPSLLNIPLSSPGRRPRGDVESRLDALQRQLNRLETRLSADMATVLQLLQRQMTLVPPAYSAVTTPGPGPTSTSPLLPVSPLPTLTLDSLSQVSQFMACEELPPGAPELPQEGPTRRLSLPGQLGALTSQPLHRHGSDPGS

Structure (SMILES)	IC50 [1] [µM]	IC50 (DNA-PK) [µM]	Ki (Kv11.1 (hERG); read-out: Ki [Kv1.11 hERG]) [µM]	Ki (Kv11.1 (hERG); Ki [Kv1.11 hERG]) [µM]
Cc1nccnc1/C(C(=O)O)=C1/C=CC(=O)C(c2ncnc3cc(N4CCOCC4)ccc23)=C1 [Example 331, (3-methyl-pyrazin-2-yl)-[3-(7-morpholin-4-ylquinazolin-4-yl)-4-oxocyclohexa-2,5-dien-(E)-ylidene]-acetic acid]	5 to 10	0.007 to 0.03	> 25	
OC(c1ccc(F)c(-c2ncnc3cc(N4CCOCC4)ccc23)c1)c1nncc2ccsc12 (stereo not drawn) [Example 332, [4-Fluoro-3-(7-morpholin-4-yl-quinazolin-4-yl)-phenyl]thieno[2,3-d}-pyridazin-7-yl-methanol]	< 0.5	< 0.003		15 to 25
OC(c1ccc(F)c(-c2ncnc3cc(N4CCOCC4)ccc23)c1)c1nncc2sccc12 (stereo not drawn) [Example 333, [4-Fluoro-3-(7-morpholin-4-yl-quinazolin-4-yl)-phenyl]thieno[2,3-d}-pyridazin-4-yl-methanol]	< 0.5	< 0.003		15 to 25
Cc1cc(C(C(N)=O)c2cc(-c3ncnc4cc(N5CCOCC5)ccc34)c(F)cc2Cl)n(C)c(=O)c1 (stereo not drawn) [Example 334, 2-[2-Chloro-4-fluoro-5-(7-morpholin-4-yl-quinazolin-4-yl)-phenyl]-2-(1,4-dimethyl-6-oxo-1,6-dihydropyridin-2-yl)-acetamide]	10 to 30	> 0.03	> 25	
OC(c1ccc(F)c(-c2ncnc3cc(N4CCOCC4)ccc23)c1)c1nncc2ccoc12 (stereo not drawn) [Example 335, [4-Fluoro-3-(7-morpholin-4-yl-quinazolin-4-yl)-phenyl]furo[2,3-d}-pyridazin-7-yl-methanol]	< 0.5	< 0.003	> 25	
OC(c1cc(-c2ncnc3cc(N4CCOCC4)ccc23)c(F)cc1F)c1nncc2ccoc12 (stereo not drawn) [Example 336, [2,4-Difluoro-5-(7-morpholin-4-yl-quinazolin-4-yl)-phenyl]furo[2,3-d}-pyridazin-7-yl-methanol]	< 0.5	< 0.003	> 25	
O=c1[nH]nc(C(O)c2ccc(F)c(-c3ncnc4cc(N5CCOCC5)ccc34)c2)c2sccc12 (stereo not drawn) [Example 337, 7-[[4-Fluoro-3-(7-morpholino-quinazolin-4-yl)-phenyl]hydroxy-methyl]-5H-thieno-[2,3-d}pyridazin-4-one]	0.5 to 5	< 0.003		15 to 25
O=c1[nH]nc(C(O)c2ccc(F)c(-c3ncnc4cc(N5CCOCC5)ccc34)c2)c2ccsc12 (stereo not drawn) [Example 338, 4-[[4-Fluoro-3-(7-morpholino-quinazolin-4-yl)-phenyl]hydroxy-methyl]-6H-thieno[2,3-d}-pyridazin-7-one]	0.5 to 5	< 0.003	> 25	
Cc1cc(C(O)c2cc(-c3ncnc4cc(N5CCOCC5)ccc34)c(F)cc2Cl)n(C)c(=O)c1 (stereo not drawn) [Example 339, 6-{[2-Chloro-4-fluoro-5-(7-morpholin-4-yl-quinazolin-4-yl)-phenyl]hydroxy-methyl}-1,4-dimethyl-1H-pyridin-2-one]	0.5 to 5	0.007 to 0.03	> 25	
Cc1cc(C(O)c2ccc(F)c(-c3ncnc4cc(N5CCOCC5)ccc34)c2)n(C)c(=O)c1 (stereo not drawn) [Example 340, 6-{[4-Fluoro-3-(7-morpholin-4-yl-quinazolin-4-yl)-phenyl]hydroxy-methyl}-1,4-dimethyl-1H-pyridin-2-one]	0.5 to 5	< 0.003	> 25	
OC(c1cc(-c2ncnc3cc(N4CCOCC4)ccc23)c(F)cc1F)c1nncc2sccc12 (stereo not drawn) [Example 341, [2,4-Difluoro-5-(7-morpholin-4-yl-quinazolin-4-yl)-phenyl]thieno[2,3-d}-pyridazin-4-yl-methanol]	< 0.5	< 0.003		15 to 25
OC(c1cc(-c2ncnc3cc(N4CCOCC4)ccc23)c(F)cc1F)c1nncc2ccsc12 (stereo not drawn) [Example 342, [2,4-Difluoro-5-(7-morpholin-4-yl-quinazolin-4-yl)-phenyl]thieno[2,3-d}-pyridazin-7-yl-methanol]	< 0.5	< 0.003	> 25	
OC(c1ccc(F)c(-c2ncnc3cc(N4CCOCC4)ccc23)c1)c1nnc2ccccn12 (stereo not drawn) [Example 343, [4-Fluoro-3-(7-morpholin-4-yl-quinazolin-4-yl)-phenyl]-[1,2,4]-triazolo[4,3-a]pyridin-3-ylmethanol]	0.5 to 5	< 0.003		15 to 25
OC(c1ccc(F)c(-c2ncnc3cc(N4CCOCC4)ccc23)c1)c1nnc2ccccn12 (stereo not drawn) [Example 344, [4-Fluoro-3-(7-morpholin-4-yl-quinazolin-4-yl)-phenyl]-[1,2,4]-triazolo[4,3-a]pyridin-3-ylmethanol]	5 to 10	< 0.003	> 25	
OC(c1ccc(F)c(-c2ncnc3cc(N4CCOCC4)ccc23)c1)c1ncnn2cccc12 (stereo not drawn) [Example 345, [4-Fluoro-3-(7-morpholin-4-yl-quinazolin-4-yl)-phenyl]pyrrolo[2,1-f]-[1,2,4]triazin-4-yl-methanol]	< 0.5	< 0.003	< 10	
Cn1cnc2c(C(O)c3cc(-c4ncnc5cc(N6CCOCC6)ccc45)c(F)cc3F)ncnc21 (stereo not drawn) [Example 346, [2,4-Difluoro-5-(7-morpholin-4-yl-quinazolin-4-yl)-phenyl]-(9-methyl-9H-purin-6-yl)-methanol]	10 to 30	0.007 to 0.03		15 to 25
Cn1cnc2c(C(O)c3cc(-c4ncnc5cc(N6CCOCC6)ccc45)c(F)cc3F)ncnc21 (stereo not drawn) [Example 347, [2,4-Difluoro-5-(7-morpholin-4-yl-quinazolin-4-yl)-phenyl]-(9-methyl-9H-purin-6-yl)-methanol]	0.5 to 5	0.003 to 0.007	> 25	
NC(=O)C(c1cc(-c2ncnc3cc(N4CCOCC4)ccc23)c(F)cc1F)c1nccn2cccc12 (stereo not drawn) [Example 348, 2-[2,4-Difluoro-5-(7-morpholin-4-yl-quinazolin-4-yl)-phenyl]-2-pyrrolo-[1,2-a]pyrazin-1-yl-acetamide]	0.5 to 5	< 0.003		10 to 15
Cc1nccnc1Cc1ccc(F)c(-c2ncnc3cc(N4CCOCC4)ccc23)c1 [Example 349, 4-[2-Fluoro-5-(3-methyl-pyrazin-2-ylmethyl)phenyl]-7-morpholin-4-yl-quinazoline]	< 0.5	0.003 to 0.007	> 25	
OC(c1cc(-c2ncnc3cc(N4CCOCC4)ccc23)c(F)cc1F)c1cccc2nncn12 (stereo not drawn) [Example 350, [2,4-Difluoro-5-(7-morpholin-4-yl-quinazolin-4-yl)-phenyl]-[1,2,4]-triazolo[4,3-a]pyridin-5-ylmethanol]	5 to 10	0.003 to 0.007	> 25	
OC(c1ccc(F)c(-c2ncnc3cc(N4CCOCC4)ccc23)c1)c1nccn2cnnc12 (stereo not drawn) [Example 351, [4-Fluoro-3-(7-morpholin-4-yl-quinazolin-4-yl)-phenyl]-[1,2,4]-triazolo[4,3-a]-pyrazin-8-ylmethanol]	10 to 30	0.007 to 0.03	> 25	
COC(c1ccc(F)c(-c2ncnc3cc(N4CCOCC4)ccc23)c1)c1nccnc1C (stereo not drawn) [Example 353, 4-{2-Fluoro-5-[methoxy-(3-methyl-pyrazin-2-yl)methyl]-phenyl}-7-morpholin-4-ylquinazoline]	10 to 30	0.007 to 0.03	> 25	
Cc1cnc(C(O)c2ccc(F)c(-c3ncnc4cc(N5CCOCC5)ccc34)c2)c(C)n1 (stereo not drawn) [Example 354, (3,5-Dimethyl-pyrazin-2-yl)-[4-fluoro-3-(7-morpholin-4-yl-quinazolin-4-yl)-phenyl]methanol]	< 0.5	< 0.003	> 25	
Cc1cnc(C(O)c2cc(-c3ncnc4cc(N5CCOCC5)ccc34)c(F)cc2F)c(C)n1 (stereo not drawn) [Example 355, [2,4-Difluoro-5-(7-morpholin-4-yl-quinazolin-4-yl)-phenyl]-(3,5-dimethyl-pyrazin-2-yl)methanol]	0.5 to 5	0.003 to 0.007		15 to 25
OC(c1ccc(F)c(-c2ncnc3cc(N4CCOCC4)ccc23)c1)c1nccn2cccc12 (stereo not drawn) [Example 356, [4-Fluoro-3-(7-morpholin-4-yl-quinazolin-4-yl)-phenyl]pyrrolo[1,2-a]-pyrazin-1-ylmethanol]	< 0.5	< 0.003	< 10	
COc1ccc(C(O)c2cc(-c3ncnc4cc(N5CCOCC5)ccc34)ccc2F)nn1 (stereo not drawn) [Example 357, [2-Fluoro-5-(7-morpholin-4-yl-quinazolin-4-yl)-phenyl]-(6-methoxy-pyridazin-3-yl)-methanol]	0.5 to 5	0.003 to 0.007	> 25	
OC(c1cc(-c2ncnc3cc(N4CCOCC4)ccc23)c(F)cc1F)c1nccn2cccc12 (stereo not drawn) [Example 358, [2,4-Difluoro-5-(7-morpholin-4-yl-quinazolin-4-yl)-phenyl]pyrrolo[1,2-a]-pyrazin-1-ylmethanol]	< 0.5	< 0.003		10 to 15
OC(c1cc(-c2ncnc3cc(N4CCOCC4)ccc23)c(F)cc1Cl)c1nccn2cccc12 (stereo not drawn) [Example 359, [2-Chloro-4-fluoro-5-(7-morpholin-4-yl-quinazolin-4-yl)-phenyl]pyrrolo[1,2-a]-pyrazin-1-ylmethanol]	< 0.5	< 0.003	< 10	
Cn1c(C(O)c2ccc(F)c(-c3ncnc4cc(N5CCOCC5)ccc34)c2)nccc1=O (stereo not drawn) [Example 360, 2-{[4-Fluoro-3-(7-morpholin-4-yl-quinazolin-4-yl)-phenyl]hydroxy-methyl}-3-methyl-3H-pyrimidin-4-one]	0.5 to 5	0.003 to 0.007	> 25	
